Read-outs that look alike come from different tables or passages of the source.
Tested on: T lymphocytes (normal mouse spleen cells) stimulated with ConA
Experiment: Mouse Spleen Cell ConA Blastogenesis Assay
Type: cell-based, mouse (C57Bl/6)
Details: for inhibition at 10 µg/mL / inhibition at 100 µg/mL / inhibition at 300 µg/mL / inhibition at 750 µg/mL / inhibition at 1 µg/mL / inhibition at 25 µg/mL / inhibition at 2.5 µg/mL / inhibition at 0.01 µg/mL / inhibition at 0.1 µg/mL: Mus musculus, T-lymphocyte; for inhibition at 2.5 µg/mL: compound 2.5 ug/ml; for inhibition at 0.1 µg/mL: compound 0.1 ug/ml
From the text: It is well known that several plant lectins, when cultured in vitro with lymphocytes, stimulate cellular activation and proliferation. Concanavolin, (ConA) selectively stimulates the blastogenic response of T lymphocytes.
Six to 8 week old male C57Bl/6 mice were purchased from Harlan Sprague Dawley (Indianapolis, Ind.).
Spleens were removed and were homogenized to obtain a single cell suspension. Erythrocytes were lysed by hypotonic shock. Upon determination of the viability and concentration of the lymphoid cells, they were adjusted to 4×10^6 cells/ml in culture medium (RPMI-1640) supplemented with 10% fetal bovine serum; 100 ug/ml streptomycin; 100 U/ml penicillin, 0.2M hepes buffer; 5×10^-5 M 2-mercaptoethanol and 2 mM glutamine). seeded into microtiter plate wells at 2×10^5 cells/0.050 ml/well. To these cultures were added various doses of experimental compounds and ConA at a final concentration of 4 or 1 ug/ml. Control cultures consisted of cells, ConA and culture medium containing the vehicle, DMSO only. […] For the testing of the methyl 1,3-O-isopropylidene-6-O-n-heptyl-α-D-fructofuranoside compound indomethacin and NDGA were used as controls. All cultures were run in triplicate.
Solutions of compounds of the invention in DMSO were prepared and dilutions were made in culture medium. Assay concentrations were either: 1, 2.5, 10, 25, 100, 300 and 750 ug/ml or 0.001, 0.01, 0.1, 1, 2.5, 10, 25 and 100 ug/ml.
Cultures were incubated for 3 days at 37° C. in a humidified atmosphere of 5% of CO2 in air. For the last 18 hours of culture, 1 uCi of ^3 H-thymidine was also incubated in each well. The cells were precipitated by a multi-channel harvester. The amount of ^3 H-thymidine incorporated by the cultures, as a measure of cell proliferation, was measured in a liquid scintillation counter. The amount of radioactive incorporation is proportional to the amount of cellular proliferation in individual wells. The students T test was used to determine the significance of the difference between experimental and control values.

[1] = ConA 1 ug/ml, compound 10 ug/ml
[2] = ConA 1 ug/ml, compound 100 ug/ml
[3] = ConA 1 ug/ml, compound 300 ug/ml
[4] = ConA 1 ug/ml, compound 750 ug/ml
[5] = ConA 4 ug/ml, compound 10 ug/ml
[6] = ConA 4 ug/ml, compound 25 ug/ml
[7] = ConA 4 ug/ml, compound 100 ug/ml
[8] = ConA 4 ug/ml, compound 300 ug/ml
[9] = ConA 4 ug/ml, compound 750 ug/ml
[10] = ConA 1 ug/ml, compound 10 ug/ml, read-out: % change from control, ConA blastogenic response
[11] = ConA 1 ug/ml, compound 100 ug/ml, read-out: % change from control, ConA blastogenic response
[12] = ConA 4 ug/ml, compound 1 ug/ml, read-out: % change from control, ConA blastogenic response
[13] = ConA 4 ug/ml, compound 10 ug/ml, read-out: % change from control, ConA blastogenic response
[14] = ConA 4 ug/ml, compound 25 ug/ml, read-out: % change from control, ConA blastogenic response
[15] = ConA 4 ug/ml, compound 100 ug/ml, read-out: % change from control, ConA blastogenic response
[16] = ConA 1 ug/ml, compound 1 ug/ml, read-out: % change from control, ConA blastogenic response
[17] = ConA 1 ug/ml, read-out: % change from control, ConA blastogenic response
[18] = ConA 1 ug/ml, compound 25 ug/ml, read-out: % change from control, ConA blastogenic response
[19] = ConA 4 ug/ml, read-out: % change from control, ConA blastogenic response

What does the source list for `CC1(C)OC2OC3C(CSCCN4CCCC4)OC(C)(C)OC3C2O1` [IIIp, 1,2:3,5-Di-O-Isopropylidene-6-deoxy-6-thio-2'-(ethyl-N"-pyrrolidyl)-α-D-glucofuranose]?
Blastogenic response of normal spleen cells to Con-A (ConA 1 ug/ml, compound 1 ug/ml): 118,909 × 10^3 cpm; % change from control, ConA blastogenic response [1]: -23%; Blastogenic response of normal spleen cells to Con-A [1]: 55,282 ± 17,762 cpm; Blastogenic response of normal spleen cells to Con-A (ConA 1 ug/ml, compound 25 ug/ml): 101,268 ± 23,586 cpm; % change from control, ConA blastogenic response [2]: -11%; Blastogenic response of normal spleen cells to Con-A [2]: 64,122 ± 7,847 cpm; % change from control, ConA blastogenic response [3]: -63%; Blastogenic response of normal spleen cells to Con-A [3]: 26,948 ± 13,540 cpm; % change from control, ConA blastogenic response [4]: -94%; Blastogenic response of normal spleen cells to Con-A [4]: 3,976 ± 1,922 cpm; % change from control, ConA blastogenic response (ConA 4 ug/ml, compound 1 ug/ml): -17%; Blastogenic response of normal spleen cells to Con-A (ConA 4 ug/ml, compound 1 ug/ml): 81,109 × 10^3 cpm; % change from control, ConA blastogenic response [5]: -40%; Blastogenic response of normal spleen cells to Con-A [5]: 58,381 ± 7,921 cpm; % change from control, ConA blastogenic response [6]: -33%; Blastogenic response of normal spleen cells to Con-A [6]: 65,424 ± 13,480 cpm; % change from control, ConA blastogenic response [7]: -55%; Blastogenic response of normal spleen cells to Con-A [7]: 43,864 ± 9,618 cpm; % change from control, ConA blastogenic response [8]: -91%; Blastogenic response of normal spleen cells to Con-A [8]: 8,310 ± 945 × 10^3 cpm; % change from control, ConA blastogenic response [9]: -91%; Blastogenic response of normal spleen cells to Con-A [9]: 8,402 ± 3,070 cpm; inhibition at 10 µg/mL [10]: 23%; inhibition at 100 µg/mL [11]: 11%; inhibition at 300 µg/mL (ConA 1 ug/ml, compound 300 ug/ml, read-out: % change from control, ConA blastogenic response): 63%; inhibition at 750 µg/mL (ConA 1 ug/ml, compound 750 ug/ml, read-out: % change from control, ConA blastogenic response): 94%; inhibition at 1 µg/mL [12]: 17%; inhibition at 10 µg/mL [13]: 40%; inhibition at 25 µg/mL [14]: 33%; inhibition at 100 µg/mL [15]: 55%; inhibition at 300 µg/mL (ConA 4 ug/ml, compound 300 ug/ml, read-out: % change from control, ConA blastogenic response): 91%; inhibition at 750 µg/mL (ConA 4 ug/ml, compound 750 ug/ml, read-out: % change from control, ConA blastogenic response): 91%; strong antiproliferative effect on ConA blastogenic response (concentration not given): greater than -50 % of control

`CC1(C)OCC(C2OC3OC(C)(C)OC3C2NCCCO)O1` [IIk, 1,2:5,6-Di-O-isopropylidene-3-deoxy-3-amino-1'-(3'-hydroxy-n-propyl)-α-D-glucofuranose] was tested. Which inhibition at 100 µg/mL (100 ug/ml, read-out: strong inhibition of ConA stimulated T lymphocyte proliferation) did it give?
Its inhibition at 100 µg/mL is under 50%.

And the inhibition at 1 µg/mL [16]?
The inhibition at 1 µg/mL was 20%.

What about the inhibition at 2.5 µg/mL [17] of the same molecule?
Its inhibition at 2.5 µg/mL is 31%.

What about the inhibition at 10 µg/mL [10] of the same molecule?
Its inhibition at 10 µg/mL is 38%.

And the inhibition at 25 µg/mL [18]?
Its inhibition at 25 µg/mL is 45%.

What about the inhibition at 100 µg/mL [11] of the same molecule?
The inhibition at 100 µg/mL was 95%.

And the inhibition at 1 µg/mL [12]?
The inhibition at 1 µg/mL was 5%.

What about the inhibition at 2.5 µg/mL [19] of the same molecule?
Its inhibition at 2.5 µg/mL is 0%.

And the inhibition at 10 µg/mL [13]?
Its inhibition at 10 µg/mL is 4%.

And the inhibition at 25 µg/mL [14]?
Its inhibition at 25 µg/mL is 5%.

What about the inhibition at 100 µg/mL [15] of the same molecule?
Its inhibition at 100 µg/mL is 83%.

Which inhibition at 0.01 µg/mL (ConA 1 ug/ml, 0.01 ug/ml, read-out: % Change from Control (Table II)) does the source give for `CCCCCCCC(=O)O[C@@H]1[C@@H](CO)O[C@@]2(OC)COC(C)(C)O[C@@H]12` [Ih, methyl 1,3-O-isopropylidene-4-O-octanoyl-α-D-fructofuranoside] here?
Its inhibition at 0.01 µg/mL is -12%.

What about the inhibition at 0.01 µg/mL (ConA 1 ug/ml, compound 0.01 ug/ml, read-out: % change from control, ConA blastogenic response) of the same molecule?
Its inhibition at 0.01 µg/mL is -32%.

And the inhibition at 0.1 µg/mL [17]?
Its inhibition at 0.1 µg/mL is -29%.

And the inhibition at 1 µg/mL [16]?
The inhibition at 1 µg/mL was -61%.

And the inhibition at 2.5 µg/mL [17]?
Its inhibition at 2.5 µg/mL is -63%.

And the inhibition at 10 µg/mL [10]?
The inhibition at 10 µg/mL was 4%.

And the inhibition at 25 µg/mL [18]?
Its inhibition at 25 µg/mL is -39%.

And the inhibition at 100 µg/mL [11]?
The inhibition at 100 µg/mL was 74%.

And the inhibition at 0.01 µg/mL (ConA 4 ug/ml, 0.01 ug/ml, read-out: % Change from Control (Table II))?
Its inhibition at 0.01 µg/mL is -18%.

And the inhibition at 0.01 µg/mL (ConA 4 ug/ml, compound 0.01 ug/ml, read-out: % change from control, ConA blastogenic response)?
The inhibition at 0.01 µg/mL was -29%.

And the inhibition at 0.1 µg/mL [19]?
The inhibition at 0.1 µg/mL was -14%.

What about the inhibition at 1 µg/mL [12] of the same molecule?
The inhibition at 1 µg/mL was -16%.

What about the inhibition at 2.5 µg/mL [19] of the same molecule?
Its inhibition at 2.5 µg/mL is -8%.

What about the inhibition at 10 µg/mL [13] of the same molecule?
Its inhibition at 10 µg/mL is 22%.

And the inhibition at 25 µg/mL [14]?
The inhibition at 25 µg/mL was 14%.

And the inhibition at 100 µg/mL [15]?
The inhibition at 100 µg/mL was 90%.

— patent publication US5298494A, “Monosaccharides having anti-proliferation and anti-inflammatory activity, compositions and uses thereof” (Greenwich Pharmaceuticals Incorporated, priority 1993, dated 1994)
